Reference: paper PMC7763008, “Antimicrobial, Anticancer and Multidrug-Resistant Reversing Activity of Novel Oxygen-, Sulfur- and Selenoflavones and Bioisosteric Analogues” (Pharmaceuticals, 2020)
Read-outs that look alike come from different tables or passages of the source.

Legend:
[1] = MTT cytotoxic activity assay, MRC-5; assay type: cell-based; settings: human
Description: (§1) Three cell lines have been used in this work: (i), the doxorubicin-sensitive Colo 205 (ATCC-CCL-222) human colonic adenocarcinoma cell line; (ii) the multidrug resistant Colo 320/MDR-LRP expressing P-gp (MDR1)-LRP (ATCC-CCL-220.1) human colonic adenocarcinoma cell line; and the MRC-5 human embryonal lung fibroblast cell line (ATCC CCL-171). The three cell lines were purchased from LGC Promochem, Teddington, UK.
MRC-5 human embryonal lung fibroblast cell line (ATCC CCL-171). As previously described, the cells were cultured in Eagle’s Minimal Essential Medium (EMEM, containing 4.5 g/L of glucose) supplemented with a non-essential amino acid mixture, a selection of vitamins and 10% heat-inactivated fetal bovine serum. The cell lines were incubated at 37 °C, in a 5% CO2, 95% air atmosphere.
(§2) The influence of synthetic flavonoid derivatives (compounds 1–6) on the doxorubicin-sensitive Colo 205, multidrug resistant Colo 320/MDR-LRP adenocarcinoma and MRC-5 cell lines was evaluated employing the MTT metabolic activity assay, using a procedure described in Supplementary Materials and in previous works, and applying the appropriate formulas to calculate the cell growth inhibition and the selectivity index (SI), as well as the criterion to determine whether a compound is strongly or moderately selective.
(§3) Briefly, the serial dilutions in culture medium required for the MTT metabolic assay (ranging from 100 to 0.195 µM) were freshly prepared before the assay. The stock solutions (10 mM) of the tested compounds were prepared in pure DMSO and the final concentration of DMSO was adjusted to less than 1% threshold in the biological experiments. The concentration-dependent growth inhibition was evaluated in 96-well flat-bottomed microtiter plates. Doxorubicin (DOXO) was employed as a positive control whilst culture medium containing cells was used as a negative control.
Prior to the experiments, the adherent human embryonal lung fibroblasts (MRC-5) were cultured in flat-bottomed microtiter 96-well plates in an EMEM media supplemented with 10% heat-inactivated fetal bovine serum. Cells were seeded at a density of 10.000 cells per well for 24 h before the beginning of the experiment. The cells were cultured at 37 °C in the humidified cell incubator with the 5% of CO2 and 95% air environment. The medium was subsequently removed from the plates containing the cells, and the dilutions of tested compounds, previously made in a separate micro-titration plate, were added to the cells (at final volume equal to 200 μL).
(§4) The inhibition of the cell growth was determined according to the formula mentioned elsewhere. Finally, the cell viability and IC50 values for every tested compound and doxorubicin were calculated using GraphPad Prism, version 5.03.

[2] = test system: Colo 320/MDR-LRP human colonic adenocarcinoma cell line (multidrug resistant); test: MTT antiproliferative activity assay, Colo 320; assay type: cell-based; settings: 5 × 10^3 cells/well, read-out: Antiproliferative activity, B—Colo 320 IC50
Description: as §1
(§5) Colo 205 (ATCC-CCL-222) and Colo 320/MDR-LRP expressing P-gp (MDR1)-LRP (ATCC-CCL-220.1 human colon adenocarcinoma cell lines. As previously described, the cells were cultured in RPMI 1640 medium supplemented with 10% heat-inactivated fetal bovine serum, 2 mM L-glutamine, 1 mM Na-pyruvate, and 100 mM Hepes. The cell lines were incubated at 37 °C, in a 5% CO2, 95% air atmosphere. The semi-adherent human colon cancer cells were detached with Trypsin-Versene (EDTA) solution for 5 min at 37 °C [20].
as §2, §3
(§6) In the case of the colonic adenocarcinoma cells, two-fold serial dilutions of the flavone compounds were prepared in 100 μL of RPMI 1640, horizontally. Furthermore, the semi-adherent colonic adenocarcinoma cells were treated with Trypsin-Versene (EDTA) solution. Then, cells were adjusted to a density of 5 × 10^3/well for antiproliferative assay and 1 × 10^4/well for the estimation of cytotoxic activity in 100 µL of medium. The cells were added to each well except to the medium control wells. The culture plates were subsequently incubated at 37 °C for 24 h and 72 h, respectively; 20 μL of MTT solution (thiazolyl blue tetrazolium bromide, Sigma) were added to each well from MTT stock solution (5 mg /mL) after incubation. After 4 h of incubation at 37 °C, 100 μL of sodium dodecyl sulfate (SDS) solution (10% in 0.01 M HCl) was added to each well and all plates were incubated at 37 °C overnight. Finally, cell growth was determined by measuring the optical density (OD) at 540 nm (ref. 630 nm) with Multiscan EX ELISA reader (Thermo Labsystems, Cheshire, WA, USA).
as §4

[3] = test system: Colo 205 human colonic adenocarcinoma cell line (doxorubicin-sensitive); test: MTT cytotoxic activity assay, Colo 205; assay type: cell-based; settings: COLO 205, read-out: Cytotoxic activity, A—Colo 205 IC50
Description: as §1, §5, §2, §3, §6, §4

S. feltiae = test: Nematicidal activity assay; assay type: in vivo; settings: Steinernema feltiae; for viability at 200 µM: read-out: Viability of the nematodes; for IC50: in Figure 2
Description: The soil nematodes S. feltiae were freshly purchased for experiment from Sautter and Stepper GmbH (Ammerbuch, Germany) and stored at 4 °C in the dark. The assay was performed according to the protocols described in the literature. Results were expressed as mean ± standard deviation (SD) and their statistical significance values were determined by one-way ANOVA followed by Tukey’s multiple comparison test. To consider data statistically significant, the p value should be ≤ 0.05.

Escherichia coli = test: Antibacterial growth assay, E. coli; assay type: cell-based; settings: highest concentration (200 µM; not restated for E. coli)
Description: (§7) The antimicrobial activities of the compounds were determined according to the protocol described in the literature, employing a Universal Microplate Reader, EL800, Biotech Instruments, Inc. Highland Park, Winooski, VT, USA [23, 24, 25].
(§8) In short words, compounds were dissolved in DMSO and later diluted in the adequate growth media to be evaluated at the final concentrations of 50, 100, 150, and 200 µM. Nutrient Luria Bertani (LB) broth, bacterial basic media, Sabouraud Dextrose (SD), and Yeast Peptone Dextrose (YPD) were exploited as media for Escherichia coli, Staphylococcus carnosus, Candida albicans, and Saccharomyces cerevisiae, respectively. In all cases, the final concentration of DMSO was 1% or less. A mixture of penicillin, streptomycin, and amphotericin B (4 U, 0.4 µg/mL and 10 µg/mL, respectively) was employed as positive control for S. carnosus and E. coli, while ketoconazole was utilized as the positive control for C. albicans and S. cerevisiae. The untreated culture in medium was employed as the negative control for each organism; 1% DMSO stock solution was used as a solvent control. All experiments were performed in triplicates and on three independent occasions (n = 9).

[4] = test system: Colo 320/MDR-LRP human colonic adenocarcinoma cell line (multidrug resistant); test: MTT cytotoxic activity assay, Colo 320; assay type: cell-based
Description: as §1, §5, §2, §3, §6, §4

[5] = test system: Colo 205 human colonic adenocarcinoma cell line (doxorubicin-sensitive); test: MTT antiproliferative activity assay, Colo 205; assay type: cell-based; settings: 5 × 10^3 cells/well
Description: as §1, §5, §2, §3, §6, §4

[6] = target: P-gp (ABCB1) efflux pump in MDR Colo 320 colon adenocarcinoma cells (Homo sapiens, UniProt P08183); test: Rhodamine 123 accumulation assay (MDR efflux pump inhibition, flow cytometry); settings: for FAR (fluorescence activity ratio): MDR Colo 320 vs sensitive Colo 205; for FAR Quotient (%): FAR of compound / FAR of verapamil (20 μM) x 100; for Increase in efflux pump inhibitory activity of naphthyl vs corresponding phenyl derivative: naphthyl-substituted vs phenyl-substituted chalcogen flavone, 20 µM data
Description: The P-glycoprotein (P-gp) inhibitory properties of the tested flavone derivatives were evaluated in a rhodamine R123 accumulation assay in two different concentrations.
This is a fluorescence-based detection assay which uses verapamil as a reference inhibitor of P-gp efflux pump. […] Compounds (1 μL and 10 μL from a stock solution of 1 mM) were added to the medium to achieve solutions with final concentrations of 2 μM and 20 μM respectively, followed by incubation of the sample for 10 min at room temperature. […] The fluorescence intensity of the cell population was measured with a Partec CyFlow flow cytometer (Partec, Munster, Germany). Verapamil (20 μM) was employed as a positive control. […] The fluorescence activity ratio (FAR) was calculated employing the following equation [20, 26]:FAR = (MDRtreated/MDRcontrol)/(sensitivetreated/ sensitivecontrol)(1)
FAR Quotient % was calculated as follows:Quotient = (FARcompound/FARverapamil) × 100(2)

Staphylococcus carnosus = test: Antibacterial growth assay, S. carnosus; assay type: cell-based; settings: highest concentration of 200 µM
Description: as §7, §8

[7] = COLO 320, read-out: Cytotoxic activity, B—Colo 320 IC50
[8] = MTT, MRC-5 normal lung fibroblasts, read-out: Cytotoxic activity, C—MRC-5 IC50
[9] = MTT, 1 × 10^4 cells/well, Colo 320, read-out: Cytotoxic activity, B—Colo 320 IC50

Chain of P-gp (ABCB1) efflux pump in MDR Colo 320 colon adenocarcinoma cells (P08183 whole entry): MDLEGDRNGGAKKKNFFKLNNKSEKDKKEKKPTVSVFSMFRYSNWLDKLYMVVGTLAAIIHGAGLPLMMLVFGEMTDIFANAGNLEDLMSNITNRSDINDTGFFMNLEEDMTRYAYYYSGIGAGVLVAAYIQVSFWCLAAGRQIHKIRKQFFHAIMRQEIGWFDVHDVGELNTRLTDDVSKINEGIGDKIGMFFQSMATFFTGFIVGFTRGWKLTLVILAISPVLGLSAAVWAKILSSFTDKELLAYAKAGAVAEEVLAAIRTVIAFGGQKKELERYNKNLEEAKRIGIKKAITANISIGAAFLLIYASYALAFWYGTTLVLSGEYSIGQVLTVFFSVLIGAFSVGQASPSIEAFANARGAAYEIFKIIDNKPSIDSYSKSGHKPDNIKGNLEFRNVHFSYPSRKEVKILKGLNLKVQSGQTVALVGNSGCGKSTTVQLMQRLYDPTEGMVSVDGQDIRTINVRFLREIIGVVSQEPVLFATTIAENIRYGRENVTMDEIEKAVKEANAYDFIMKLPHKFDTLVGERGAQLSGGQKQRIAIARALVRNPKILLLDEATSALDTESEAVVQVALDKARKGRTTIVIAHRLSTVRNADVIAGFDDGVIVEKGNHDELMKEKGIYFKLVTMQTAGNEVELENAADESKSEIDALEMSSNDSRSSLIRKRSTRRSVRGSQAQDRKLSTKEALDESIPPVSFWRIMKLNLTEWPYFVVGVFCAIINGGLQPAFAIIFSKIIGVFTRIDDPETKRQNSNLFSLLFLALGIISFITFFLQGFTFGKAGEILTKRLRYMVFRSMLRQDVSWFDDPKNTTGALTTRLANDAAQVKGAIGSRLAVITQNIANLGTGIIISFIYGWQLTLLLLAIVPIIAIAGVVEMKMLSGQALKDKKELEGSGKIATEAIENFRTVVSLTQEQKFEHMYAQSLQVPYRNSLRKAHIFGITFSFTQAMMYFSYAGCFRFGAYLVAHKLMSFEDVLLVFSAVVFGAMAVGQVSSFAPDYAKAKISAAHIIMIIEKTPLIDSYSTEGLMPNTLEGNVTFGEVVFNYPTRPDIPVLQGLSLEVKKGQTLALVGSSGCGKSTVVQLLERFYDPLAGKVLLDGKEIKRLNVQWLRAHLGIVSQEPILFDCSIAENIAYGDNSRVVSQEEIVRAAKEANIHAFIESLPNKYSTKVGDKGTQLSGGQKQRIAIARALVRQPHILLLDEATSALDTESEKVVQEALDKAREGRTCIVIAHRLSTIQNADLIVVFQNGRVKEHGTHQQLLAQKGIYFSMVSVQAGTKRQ

IC50 [2] [µM]	IC50 [5] [µM]	FAR (fluorescence activity ratio) ([6]; 2 μM compound)	FAR Quotient (%) ([6]; 2 μM compound)	FAR (fluorescence activity ratio) ([6]; 20 μM)	FAR Quotient (%) ([6]; 20 μM)	Increase in efflux pump inhibitory activity of naphthyl vs corresponding phenyl derivative [6] [fold]	P-gp inhibition relative to the reference verapamil ([6]; 20 µM) [fold]	Structure (SMILES)	IC50 [1] [µM]	IC50 [3] [µM]	viability at 200 µM (S. feltiae; highest concentration (200 µM)) [%]	IC50 (S. feltiae) [µM]	inhibition at 200 µM (Escherichia coli) [%]	IC50 [4, 7] [µM]	inhibition at 200 µM (Staphylococcus carnosus) [%]	IC50 [1, 8] [µM]	viability at 200 µM (S. feltiae) [%]	IC50 [4, 9] [µM]	IC50 ([1]; MRC-5 embryonal lung fibroblast cells, MTT, MRC-5 normal lung fibroblasts, read-out: Cytotoxic activity, C—MRC-5 IC50) [µM]
> 100	> 100	1.14	34.92	1.53	46.92	–	–	COc1ccc(-c2oc3ccccc3c(=O)c2CC(S(=O)(=O)C(F)(F)F)S(=O)(=O)C(F)(F)F)cc1 [Compound 1]	> 100	> 100	30	23 ± 0.297	30	> 100	–	–	–	–	–
> 100	> 100	0.97	29.67	1.89	57.83	–	–	COc1ccc(-c2sc3ccccc3c(=O)c2CC(S(=O)(=O)C(F)(F)F)S(=O)(=O)C(F)(F)F)cc1 [Compound 2]	> 100	> 100	24	54.98 ± 0.143	42	> 100	47	–	–	–	–
> 100	> 100	1.48	45.42	4.81	147.50	3.14	–	COc1ccc2cc(-c3oc4ccccc4c(=O)c3CC(S(=O)(=O)C(F)(F)F)S(=O)(=O)C(F)(F)F)ccc2c1 [Compound 4]	> 100	> 100	–	–	45	> 100	37	–	–	–	–
> 100	> 100	1.95	59.92	8.61	264.17	4.57	2.64	COc1ccc2cc(-c3sc4ccccc4c(=O)c3CC(S(=O)(=O)C(F)(F)F)S(=O)(=O)C(F)(F)F)ccc2c1 [Compound 5]	> 100	> 100	–	–	39	> 100	47	–	–	–	–
0.14	0.24	–	–	–	–	–	–	COc1cccc2c1C(=O)c1c(O)c3c(c(O)c1C2=O)C[C@@](O)(C(=O)CO)C[C@@H]3O[C@H]1C[C@H](N)[C@H](O)[C@H](C)O1 [DOXO, Doxorubicin, reference compound]	–	1.56	–	–	–	–	–	–	–	6.45	> 10

Structure (SMILES)	IC50 [2] [µM]	IC50 [5] [µM]	FAR (fluorescence activity ratio) ([6]; 2 μM compound)	FAR Quotient (%) ([6]; 2 μM compound)	FAR (fluorescence activity ratio) ([6]; 20 μM)	FAR Quotient (%) ([6]; 20 μM)	Increase in efflux pump inhibitory activity of naphthyl vs corresponding phenyl derivative [6] [fold]	P-gp inhibition relative to the reference verapamil ([6]; 20 µM) [fold]	IC50 [1] [µM]	IC50 [3] [µM]	viability at 200 µM (S. feltiae; highest concentration (200 µM)) [%]	IC50 (S. feltiae) [µM]	inhibition at 200 µM (Escherichia coli) [%]	IC50 [4, 7] [µM]	inhibition at 200 µM (Staphylococcus carnosus) [%]	IC50 [1, 8] [µM]	viability at 200 µM (S. feltiae) [%]	IC50 [4, 9] [µM]	IC50 ([1]; MRC-5 embryonal lung fibroblast cells, MTT, MRC-5 normal lung fibroblasts, read-out: Cytotoxic activity, C—MRC-5 IC50) [µM]
COc1ccc(-c2[se]c3ccccc3c(=O)c2CC(S(=O)(=O)C(F)(F)F)S(=O)(=O)C(F)(F)F)cc1 [Compound 3]	> 100	> 100	1.06	32.58	1.45	44.33	–	–	–	–	–	41.94 ± 0.286	49	–	57	> 100	29	> 100	–
COc1ccc2cc(-c3[se]c4ccccc4c(=O)c3CC(S(=O)(=O)C(F)(F)F)S(=O)(=O)C(F)(F)F)ccc2c1 [Compound 6, bis(triflyl) selenoflavone]	> 100	> 100	1.14	34.92	4.67	143.33	3.23	–	–	–	–	80.62 ± 0.142	–	–	–	> 100	26	> 100	–
